# Measurements: ChEMBL document CHEMBL3399972, “Structure-activity relationships of a novel pyranopyridine series of Gram-negative bacterial efflux pump inhibitors” (Bioorg Med Chem, 2015)
# Calls of active or inactive are those of the source. No rule for the calls is given here.
# Test system: Escherichia coli
# Assay: Inhibition of multidrug resistance efflux pump in wild-type Escherichia coli AB1157 assessed as concentration required to reduce piperacillin MIC by 4-fold by checkerboard assay
row,SMILES,INH
1,CN1CCCN(c2nc(SCCc3ccccc3)c(C#N)c3c2COC(C)(C)C3)CC1,25 µM
2,CC1(C)Cc2c(C#N)c(SCC(=O)c3ccccc3)nc(N3CCOCC3)c2CO1,> 100 µM
3,CC1(C)Cc2c(C#N)c(SCCc3cccc(Cl)c3)nc(N3CCOCC3)c2CO1,3.1 µM
4,COCCN1CCN(c2nc(SCCc3cccc(F)c3)c(C#N)c3c2COC(C)(C)C3)CC1,6.3 µM
5,CC1CN(c2nc(SCCc3ccc(NC(=O)C(C)(C)C)cc3)c(C#N)c3c2COC(C)(C)C3)CC(C)O1 (stereo not given),> 100 µM
6,CC1(C)Cc2c(C#N)c(SCCc3ccc(F)cc3)nc(N3CCOCC3)c2CO1,3.1 µM
7,COCCN1CCN(c2nc(SCCc3ccncc3)c(C#N)c3c2COC(C)(C)C3)CC1,50 µM
8,CC1(C)Cc2c(c(N3CCOCC3)nc(SCCc3ccccc3)c2C(N)=O)CO1,> 100 µM
9,CC1(C)Cc2c(C#N)c(SCCCc3ccccc3)nc(N3CCOCC3)c2CO1,> 100 µM
10,COc1ccccc1CCSc1nc(N2CCOCC2)c2c(c1C#N)CC(C)(C)OC2,3.1 µM
11,CC1(C)Cc2c(C#N)c(SCCc3ccccc3)nc(N3CCCC3)c2CO1,> 100 µM
12,CC1(C)Cc2c(C#N)c(SCCc3cccc(F)c3)nc(N3CCOCC3)c2CO1,4.7 µM
13,CC1(C)Cc2c(C#N)c(S(=O)(=O)CCc3ccccc3)nc(N3CCOCC3)c2CO1,> 100 µM
14,CC1(C)Cc2c(C#N)c(SCCc3ccccc3)nc(N3CCCNCC3)c2CO1,12.5 µM
15,N#Cc1c(SCCc2ccccn2)nc(N2CCOCC2)c2c1CCOC2,> 100 µM
16,CCN(CC)c1nc(SCCc2ccccc2)c(C#N)c2c1COC(C)(C)C2,6.3 µM

row,SMILES,INH
1,COCCN1CCN(c2nc(SCCc3cccc(Br)c3)c(C#N)c3c2COC(C)(C)C3)CC1,2.8 µM
2,CC1(C)Cc2c(C#N)c(SCCc3nnn[nH]3)nc(N3CCOCC3)c2CO1,> 100 µM
3,CC1(C)Cc2c(C#N)c(SCC(O)c3ccccc3)nc(N3CCOCC3)c2CO1 (stereo not given),> 100 µM
4,N#Cc1c(SCCc2ccccc2)nc(N2CCOCC2)c2c1CCOC2,> 100 µM
5,CN1CCN(c2nc(SCCc3ccccc3)c(C#N)c3c2COC(C)(C)C3)CC1,6.3 µM
6,CC1(C)Cc2c(C#N)c(SCCc3cccnc3)nc(N3CCOCC3)c2CO1,3.1 µM
7,CC1(C)Cc2c(C#N)c(SCCC#N)nc(N3CCOCC3)c2CO1,> 100 µM
8,CC1(C)Cc2c(C#N)c(SCCc3ccccn3)nc(N3CCOCC3)c2CO1,25 µM
9,COCCN1CCN(c2nc(SCCc3ccccc3F)c(C#N)c3c2COC(C)(C)C3)CC1,9.4 µM
10,COCCN1CCN(c2nc(SCCOc3ccccc3)c(C#N)c3c2COC(C)(C)C3)CC1,12.5 µM
11,COCCN1CCN(c2nc(SCCc3cccnc3)c(C#N)c3c2COC(C)(C)C3)CC1,25 µM
12,COc1cccc(CCSc2nc(N3CC(C)OC(C)C3)c3c(c2C#N)CC(C)(C)OC3)c1 (stereo not given),1.6 µM
13,CC1(C)Cc2c(C#N)c(SCCc3coc4ccccc34)nc(N3CCOCC3)c2CO1,6.3 µM
14,CC1(C)Cc2c(c(N3CCOCC3)nc(SCCc3ccccc3)c2C(=N)NO)CO1,> 100 µM
15,CC1(C)Cc2c(C#N)c([S+]([O-])CCc3ccccc3)nc(N3CCOCC3)c2CO1 (stereo not given),> 100 µM

# Test system: HeLa
# Assay: Cytotoxicity against human HeLa cells
# Format: cell-based
row,SMILES,CC50
1,CN1CCCN(c2nc(SCCc3ccccc3)c(C#N)c3c2COC(C)(C)C3)CC1,16.4 µM
2,CC1(C)Cc2c(C#N)c(SCCc3cccc(Cl)c3)nc(N3CCOCC3)c2CO1,> 100 µM
3,COCCN1CCN(c2nc(SCCc3cccc(F)c3)c(C#N)c3c2COC(C)(C)C3)CC1,37.9 µM
4,CC1CN(c2nc(SCCc3ccc(NC(=O)C(C)(C)C)cc3)c(C#N)c3c2COC(C)(C)C3)CC(C)O1 (stereo not given),> 100 µM
5,CC1(C)Cc2c(C#N)c(SCCc3ccc(F)cc3)nc(N3CCOCC3)c2CO1,59 µM
6,COCCN1CCN(c2nc(SCCc3ccncc3)c(C#N)c3c2COC(C)(C)C3)CC1,95.9 µM
7,CC1CN(c2nc(SCCc3ccccc3)c(C#N)c3c2COC(C)(C)C3)CC(C)O1 (stereo not given),> 100 µM
8,COc1ccccc1CCSc1nc(N2CCOCC2)c2c(c1C#N)CC(C)(C)OC2,> 100 µM
9,CC1(C)Cc2c(C#N)c(SCCc3ccccc3)nc(N3CCCC3)c2CO1,20.2 µM
10,CC1(C)Cc2c(C#N)c(SCCc3cccc(F)c3)nc(N3CCOCC3)c2CO1,> 100 µM
11,CC1(C)Cc2c(C#N)c(SCCc3ccccc3)nc(N3CCCNCC3)c2CO1,20.3 µM
12,CCN(CC)c1nc(SCCc2ccccc2)c(C#N)c2c1COC(C)(C)C2,38.2 µM
13,COCCN1CCN(c2nc(SCCc3cccc(Br)c3)c(C#N)c3c2COC(C)(C)C3)CC1,75.1 µM
14,CC1(C)Cc2c(C#N)c(SCCc3nnn[nH]3)nc(N3CCOCC3)c2CO1,30.2 µM
15,CN1CCN(c2nc(SCCc3ccccc3)c(C#N)c3c2COC(C)(C)C3)CC1,14.4 µM
16,CC1(C)Cc2c(C#N)c(SCCc3cccnc3)nc(N3CCOCC3)c2CO1,> 100 µM
17,CC1(C)Cc2c(C#N)c(SCCC#N)nc(N3CCOCC3)c2CO1,> 100 µM
18,CC1(C)Cc2c(C#N)c(SCCc3ccccn3)nc(N3CCOCC3)c2CO1,78.1 µM
19,COCCN1CCN(c2nc(SCCc3ccccc3F)c(C#N)c3c2COC(C)(C)C3)CC1,30.6 µM
20,COCCN1CCN(c2nc(SCCOc3ccccc3)c(C#N)c3c2COC(C)(C)C3)CC1,33.9 µM
21,COCCN1CCN(c2nc(SCCc3cccnc3)c(C#N)c3c2COC(C)(C)C3)CC1,> 100 µM
22,CC1(C)Cc2c(C#N)c(SCCc3ccccc3F)nc(N3CCOCC3)c2CO1,> 100 µM
23,COc1cccc(CCSc2nc(N3CC(C)OC(C)C3)c3c(c2C#N)CC(C)(C)OC3)c1 (stereo not given),> 100 µM
24,CC1(C)Cc2c(C#N)c(SCCc3coc4ccccc34)nc(N3CCOCC3)c2CO1,> 100 µM

# Test system: Escherichia coli
# Assay: Antibacterial activity against Escherichia coli at 100 uM
# Format: functional, organism-based
row,SMILES,Activity
1,CN1CCCN(c2nc(SCCc3ccccc3)c(C#N)c3c2COC(C)(C)C3)CC1,inactive
2,CC1(C)Cc2c(C#N)c(SCC(=O)c3ccccc3)nc(N3CCOCC3)c2CO1,inactive
3,CC1(C)Cc2c(C#N)c(SCCc3cccc(Cl)c3)nc(N3CCOCC3)c2CO1,inactive
4,COCCN1CCN(c2nc(SCCc3cccc(F)c3)c(C#N)c3c2COC(C)(C)C3)CC1,inactive
5,CC1CN(c2nc(SCCc3ccc(NC(=O)C(C)(C)C)cc3)c(C#N)c3c2COC(C)(C)C3)CC(C)O1 (stereo not given),inactive
6,CC1(C)Cc2c(C#N)c(SCCc3ccc(F)cc3)nc(N3CCOCC3)c2CO1,inactive
7,COCCN1CCN(c2nc(SCCc3ccncc3)c(C#N)c3c2COC(C)(C)C3)CC1,inactive
8,CC1(C)Cc2c(c(N3CCOCC3)nc(SCCc3ccccc3)c2C(N)=O)CO1,inactive
9,CC1(C)Cc2c(C#N)c(SCCCc3ccccc3)nc(N3CCOCC3)c2CO1,inactive
10,CC1CN(c2nc(SCCc3ccccc3)c(C#N)c3c2COC(C)(C)C3)CC(C)O1 (stereo not given),inactive
11,COc1ccccc1CCSc1nc(N2CCOCC2)c2c(c1C#N)CC(C)(C)OC2,inactive
12,CC1(C)Cc2c(C#N)c(SCCc3ccccc3)nc(N3CCCC3)c2CO1,inactive
13,CC1(C)Cc2c(C#N)c(SCCc3cccc(F)c3)nc(N3CCOCC3)c2CO1,inactive
14,CC1(C)Cc2c(C#N)c(S(=O)(=O)CCc3ccccc3)nc(N3CCOCC3)c2CO1,inactive
15,CC1(C)Cc2c(C#N)c(SCCc3ccccc3)nc(N3CCCNCC3)c2CO1,inactive
16,N#Cc1c(SCCc2ccccn2)nc(N2CCOCC2)c2c1CCOC2,inactive
17,CCN(CC)c1nc(SCCc2ccccc2)c(C#N)c2c1COC(C)(C)C2,inactive

row,SMILES,Activity
1,COCCN1CCN(c2nc(SCCc3cccc(Br)c3)c(C#N)c3c2COC(C)(C)C3)CC1,inactive
2,CC1(C)Cc2c(C#N)c(SCCc3nnn[nH]3)nc(N3CCOCC3)c2CO1,inactive
3,CC1(C)Cc2c(C#N)c(SCC(O)c3ccccc3)nc(N3CCOCC3)c2CO1 (stereo not given),inactive
4,N#Cc1c(SCCc2ccccc2)nc(N2CCOCC2)c2c1CCOC2,inactive
5,CN1CCN(c2nc(SCCc3ccccc3)c(C#N)c3c2COC(C)(C)C3)CC1,inactive
6,CC1(C)Cc2c(C#N)c(SCCc3cccnc3)nc(N3CCOCC3)c2CO1,inactive
7,CC1(C)Cc2c(C#N)c(SCCC#N)nc(N3CCOCC3)c2CO1,inactive
8,CC1(C)Cc2c(C#N)c(SCCc3ccccn3)nc(N3CCOCC3)c2CO1,inactive
9,COCCN1CCN(c2nc(SCCc3ccccc3F)c(C#N)c3c2COC(C)(C)C3)CC1,inactive
10,COCCN1CCN(c2nc(SCCOc3ccccc3)c(C#N)c3c2COC(C)(C)C3)CC1,inactive
11,COCCN1CCN(c2nc(SCCc3cccnc3)c(C#N)c3c2COC(C)(C)C3)CC1,inactive
12,CC1(C)Cc2c(C#N)c(SCCc3ccccc3F)nc(N3CCOCC3)c2CO1,inactive
13,COc1cccc(CCSc2nc(N3CC(C)OC(C)C3)c3c(c2C#N)CC(C)(C)OC3)c1 (stereo not given),inactive
14,CC1(C)Cc2c(C#N)c(SCCc3coc4ccccc34)nc(N3CCOCC3)c2CO1,inactive
15,CC1(C)Cc2c(c(N3CCOCC3)nc(SCCc3ccccc3)c2C(=N)NO)CO1,inactive
16,CC1(C)Cc2c(C#N)c([S+]([O-])CCc3ccccc3)nc(N3CCOCC3)c2CO1 (stereo not given),inactive

# Test system: Escherichia coli
# Assay: Inhibition of multidrug resistance efflux pump in Escherichia coli assessed as concentration required to reduce levofloxacin MIC by 4-fold by checkerboard assay
row,SMILES,INH
1,CN1CCCN(c2nc(SCCc3ccccc3)c(C#N)c3c2COC(C)(C)C3)CC1,12.5 µM
2,CC1(C)Cc2c(C#N)c(SCC(=O)c3ccccc3)nc(N3CCOCC3)c2CO1,> 100 µM
3,CC1(C)Cc2c(C#N)c(SCCc3cccc(Cl)c3)nc(N3CCOCC3)c2CO1,3.1 µM
4,COCCN1CCN(c2nc(SCCc3cccc(F)c3)c(C#N)c3c2COC(C)(C)C3)CC1,> 100 µM
5,CC1CN(c2nc(SCCc3ccc(NC(=O)C(C)(C)C)cc3)c(C#N)c3c2COC(C)(C)C3)CC(C)O1 (stereo not given),> 100 µM
6,CC1(C)Cc2c(C#N)c(SCCc3ccc(F)cc3)nc(N3CCOCC3)c2CO1,6.3 µM
7,COCCN1CCN(c2nc(SCCc3ccncc3)c(C#N)c3c2COC(C)(C)C3)CC1,6.3 µM
8,CC1(C)Cc2c(c(N3CCOCC3)nc(SCCc3ccccc3)c2C(N)=O)CO1,> 100 µM
9,CC1(C)Cc2c(C#N)c(SCCCc3ccccc3)nc(N3CCOCC3)c2CO1,> 100 µM
10,COc1ccccc1CCSc1nc(N2CCOCC2)c2c(c1C#N)CC(C)(C)OC2,3.1 µM
11,CC1(C)Cc2c(C#N)c(SCCc3ccccc3)nc(N3CCCC3)c2CO1,> 100 µM
12,CC1(C)Cc2c(C#N)c(SCCc3cccc(F)c3)nc(N3CCOCC3)c2CO1,> 100 µM
13,CC1(C)Cc2c(C#N)c(S(=O)(=O)CCc3ccccc3)nc(N3CCOCC3)c2CO1,> 100 µM
14,CC1(C)Cc2c(C#N)c(SCCc3ccccc3)nc(N3CCCNCC3)c2CO1,12.5 µM
15,N#Cc1c(SCCc2ccccn2)nc(N2CCOCC2)c2c1CCOC2,> 100 µM
16,CCN(CC)c1nc(SCCc2ccccc2)c(C#N)c2c1COC(C)(C)C2,> 100 µM

row,SMILES,INH
1,COCCN1CCN(c2nc(SCCc3cccc(Br)c3)c(C#N)c3c2COC(C)(C)C3)CC1,12.5 µM
2,CC1(C)Cc2c(C#N)c(SCCc3nnn[nH]3)nc(N3CCOCC3)c2CO1,> 100 µM
3,CC1(C)Cc2c(C#N)c(SCC(O)c3ccccc3)nc(N3CCOCC3)c2CO1 (stereo not given),> 100 µM
4,N#Cc1c(SCCc2ccccc2)nc(N2CCOCC2)c2c1CCOC2,> 100 µM
5,CN1CCN(c2nc(SCCc3ccccc3)c(C#N)c3c2COC(C)(C)C3)CC1,6.3 µM
6,CC1(C)Cc2c(C#N)c(SCCc3cccnc3)nc(N3CCOCC3)c2CO1,25 µM
7,CC1(C)Cc2c(C#N)c(SCCC#N)nc(N3CCOCC3)c2CO1,> 100 µM
8,CC1(C)Cc2c(C#N)c(SCCc3ccccn3)nc(N3CCOCC3)c2CO1,50 µM
9,COCCN1CCN(c2nc(SCCc3ccccc3F)c(C#N)c3c2COC(C)(C)C3)CC1,12.5 µM
10,COCCN1CCN(c2nc(SCCOc3ccccc3)c(C#N)c3c2COC(C)(C)C3)CC1,> 100 µM
11,COCCN1CCN(c2nc(SCCc3cccnc3)c(C#N)c3c2COC(C)(C)C3)CC1,> 100 µM
12,CC1(C)Cc2c(C#N)c(SCCc3ccccc3F)nc(N3CCOCC3)c2CO1,> 100 µM
13,COc1cccc(CCSc2nc(N3CC(C)OC(C)C3)c3c(c2C#N)CC(C)(C)OC3)c1 (stereo not given),9.4 µM
14,CC1(C)Cc2c(C#N)c(SCCc3coc4ccccc34)nc(N3CCOCC3)c2CO1,> 100 µM
15,CC1(C)Cc2c(c(N3CCOCC3)nc(SCCc3ccccc3)c2C(=N)NO)CO1,> 100 µM
16,CC1(C)Cc2c(C#N)c([S+]([O-])CCc3ccccc3)nc(N3CCOCC3)c2CO1 (stereo not given),> 100 µM
